Results on 10 molecules are retold here after PubChem BioAssay (NCI).

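Grown in 96-well plates, cells were treated for 48 hours with each compound at five concentrations. Insufficient inhibition: endpoint recorded as highest concentration tested. Abbreviation: GI50, concentration required for 50% inhibition of growth. Definition used: TGI = concentration required for complete inhibition of growth.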

Some test systems named below: SK-MEL-2 melanoma; HCC-2998 colon; MDA-MB-435; NCI-H460 lung; T-47D breast; OVCAR-8 ovarian; OVCAR-5 ovarian; BT-549 breast; SR leukemia; OVCAR-3 ovarian.
Common to all, as to test: inhibition of tumour cell growth, NCI panel, 48 h

As to `CC#CC#C/C(=C/C=CC(=O)OC)SC`, the TGI in the assay on SK-MEL-2 melanoma, in the assay with HCC-2998 colon, in the assay on MDA-MB-435, in the assay with NCI-H460 lung, in the assay with T-47D breast and with OVCAR-8 ovarian was over 100 µM each time. The TGI with OVCAR-5 ovarian and in the assay on BT-549 breast was over 100 µM each time.
`Cc1c(C(=O)c2ccccc2)[n+](=O)c2cc(F)c(F)cc2n1[O-]`: the GI50 was 0.316 µM with SR leukemia; 2.2 µM in the assay on MDA-MB-435; 2.27 µM in the assay on NCI-H460 lung; 3.7 µM with T-47D breast; 1.53 µM in the assay with OVCAR-3 ovarian; 2.02 µM with OVCAR-8 ovarian. Moreover, the GI50 in the assay on OVCAR-5 ovarian is 18.7 µM; in the assay on BT-549 breast, 2.04 µM. For the same molecule, the TGI was 5.24 µM with SR leukemia; 5.43 µM with MDA-MB-435; 5.17 µM with NCI-H460 lung; 20.1 µM in the assay on T-47D breast; 3.04 µM in the assay with OVCAR-3 ovarian; 4.32 µM in the assay with OVCAR-8 ovarian. Further, the TGI with OVCAR-5 ovarian is 33.8 µM; in the assay with BT-549 breast, 4.39 µM.
For the molecule `COc1cc(N2CCC(N)CC2)ccc1Nc1ncc(Cl)c(-c2c[nH]c3ccccc23)n1`, the GI50 in the assay with SK-MEL-2 melanoma is 0.23 µM; in the assay on HCC-2998 colon, 0.649 µM; with MDA-MB-435, 0.266 µM; in the assay on NCI-H460 lung it was 0.235 µM; in the assay with T-47D breast, 1.78 µM; with OVCAR-3 ovarian, 1.14 µM. Also, the GI50 in the assay on OVCAR-8 ovarian was 1.13 µM; with OVCAR-5 ovarian, 0.137 µM; in the assay on BT-549 breast it was 1.56 µM. Besides, the TGI is 0.982 µM in the assay with SK-MEL-2 melanoma; 2.23 µM with HCC-2998 colon; 1.77 µM with MDA-MB-435; 1.66 µM in the assay with NCI-H460 lung; 4.72 µM in the assay with T-47D breast; 3.71 µM with OVCAR-3 ovarian. The TGI with OVCAR-8 ovarian turned out to be 2.44 µM; in the assay on OVCAR-5 ovarian it was 2.11 µM; with BT-549 breast, 3.39 µM.
In the case of `Cc1c(Cl)c(C)c(Cl)c(O)c1Cl`, the TGI in the assay on SK-MEL-2 melanoma was 30.3 µM; in the assay with HCC-2998 colon it was 50.6 µM; in the assay with MDA-MB-435 it was 60.7 µM; in the assay on NCI-H460 lung, 65.8 µM; with T-47D breast, over 100 µM; with OVCAR-3 ovarian it was 66.5 µM. Also, the TGI with OVCAR-8 ovarian was over 100 µM; in the assay on OVCAR-5 ovarian, over 100 µM; with BT-549 breast, 81.7 µM.
As for `CC(=O)N[C@@H](Cc1ccc(OP(=O)(O)O)cc1)C(=O)N[C@H]1CCC(=O)N2CCC[C@@H](C(=O)NC3CCc4ccccc43)N2C1=O` (stereo partly drawn), the GI50 in the assay with SK-MEL-2 melanoma, in the assay with HCC-2998 colon, with MDA-MB-435, in the assay on NCI-H460 lung, in the assay with T-47D breast and with OVCAR-3 ovarian was over 25 µM each time. Also, the GI50 with OVCAR-8 ovarian, in the assay with OVCAR-5 ovarian and with BT-549 breast was over 25 µM each time. In addition, the TGI in the assay with SK-MEL-2 melanoma, in the assay on HCC-2998 colon, in the assay with MDA-MB-435, in the assay on NCI-H460 lung, in the assay on T-47D breast and with OVCAR-3 ovarian was over 25 µM each time. The TGI with OVCAR-8 ovarian, in the assay with OVCAR-5 ovarian and with BT-549 breast was over 25 µM throughout.
Turning to `O=C(NN1C(=O)CSC1c1c(Cl)cccc1Cl)C(O)c1ccccc1` (stereo not drawn), the GI50 with SK-MEL-2 melanoma is 50.5 µM; in the assay with HCC-2998 colon it was 64.3 µM; in the assay on MDA-MB-435 it was 25 µM; in the assay on NCI-H460 lung, 40.4 µM; with T-47D breast, 40.4 µM; in the assay with OVCAR-3 ovarian it was 21.3 µM. The GI50 with OVCAR-8 ovarian is 52 µM; with OVCAR-5 ovarian, over 100 µM; in the assay on BT-549 breast, 80 µM. In addition, the TGI in the assay with SK-MEL-2 melanoma was over 100 µM; in the assay on HCC-2998 colon, over 100 µM; with MDA-MB-435 it was over 100 µM; in the assay on NCI-H460 lung, over 100 µM; with T-47D breast, over 100 µM; in the assay with OVCAR-3 ovarian, 76.6 µM. Further, the TGI in the assay with OVCAR-8 ovarian, in the assay on OVCAR-5 ovarian and in the assay with BT-549 breast was over 100 µM in each case.
With `O=C1c2ccc3c4c(ccc(c24)C(=O)N1CCNCc1ccccc1)C(=O)N(CCNCc1ccccc1)C3=O`, the GI50 is 2.23 µM in the assay on SK-MEL-2 melanoma; 1.74 µM in the assay with HCC-2998 colon; 1.8 µM in the assay with NCI-H460 lung; 1.64 µM with T-47D breast; 1.91 µM with OVCAR-3 ovarian; 1.2 µM in the assay with OVCAR-8 ovarian. The GI50 in the assay with OVCAR-5 ovarian is 2.02 µM; in the assay with BT-549 breast, 2.45 µM. The TGI in the assay with SK-MEL-2 melanoma stood at 5.81 µM; in the assay with HCC-2998 colon, 3.15 µM; in the assay with NCI-H460 lung, 4.26 µM; with T-47D breast it was 3.57 µM; with OVCAR-3 ovarian, 4.16 µM; in the assay with OVCAR-8 ovarian, 4.26 µM. Moreover, the TGI in the assay on OVCAR-5 ovarian stood at 4.61 µM; in the assay on BT-549 breast, 6.19 µM.
Consider `CCn1ncc(N=O)c1N`, for which the TGI with SK-MEL-2 melanoma, with SR leukemia, in the assay with HCC-2998 colon, with MDA-MB-435, in the assay on NCI-H460 lung and in the assay with T-47D breast was over 100 µM in each case. Further, the TGI with OVCAR-3 ovarian, with OVCAR-8 ovarian and in the assay with OVCAR-5 ovarian was over 100 µM throughout.
Take `CC(C)C1=CC2=C(C(=O)C1=O)C13CCCC(C)(C)C1CC2OC3=O` (stereo not drawn): the TGI in the assay with SK-MEL-2 melanoma came to 47.4 µM; in the assay on HCC-2998 colon, 46.3 µM; with MDA-MB-435, 43.2 µM; with NCI-H460 lung it was 71.9 µM; in the assay on T-47D breast it was 48.4 µM; in the assay on OVCAR-3 ovarian, 38.8 µM. Moreover, the TGI in the assay with OVCAR-8 ovarian is 35.4 µM; in the assay with OVCAR-5 ovarian, 59.7 µM; in the assay on BT-549 breast it was 37.4 µM.
As for `Cc1ccccc1-n1c(CCl)nc2ccc(Br)cc2c1=O`, the TGI in the assay with SK-MEL-2 melanoma was 32.5 µM; with SR leukemia, over 24.9 µM; with HCC-2998 colon it was 30.8 µM; in the assay on NCI-H460 lung it was 28 µM; in the assay with OVCAR-3 ovarian, 27.5 µM; in the assay on OVCAR-8 ovarian, 27.1 µM. The molecule further showed a TGI in the assay on OVCAR-5 ovarian of 56.3 µM.
